According to US12653191B2, “Active compound combinations” (Bayer Aktiengesellschaft, priority 2020, dated 2026):
Like-named read-outs stand apart in the source and are kept apart here.

Key:
Cordana musae [1] = experiment: in vitro-Test with fungal microorganisms, Method A (tables E1-E8); format: cell-based; details: Neocordana musae, single substance, read-out: Efficacy %
Method: (§1) Example: In Vitro-Test with Fungal Microorganisms
(§2) Wells of 96-well microtiter plates are filled with 10 μl of a preparation of test compound or compound combination in methanol+emulsifier alkylaryl-polyglycol-ether. Thereafter, the solvent is evaporated in a hood. At the next step, 100 μl of liquid potato dextrose medium is given into each well, that has been amended with an appropriate concentration of spores or mycelium suspension of the test fungus.
(§3) With the aid of a photometer, the extinction in all wells is measured at the wavelength of 620 nm.
(§4) The microtiter plates are incubated at 20° C. and 85% relative humidity. The inhibition of growth is determined again photometrically 3-5 days after the application. Efficacy is calculated in relation to the untreated control, 0% efficacy means fungal growth as high as in untreated control while 100% efficacy means no fungal growth is measured.
(§5) The data in tables A1 to A12, B1 to B14, C1 to C10, D1 to D8, E1 to E8, F1 to F11, G1 to G4, H1 to H4 and I1 to I5 were collected according to Method A. The data in tables A13 to A22, B15 to B18, C11 to C20, E9 to E16, F12 to F15, G5 to G15, H5 to H8, I6 to I11 and J1 to J11 were collected according to Method B.

[2] = system: Colletotrichum lindemuthianum; experiment: in vitro-Test with fungal microorganisms, Method A (tables D1-D8); format: cell-based; details: Colletotrichum lindemuthianum, read-out: Efficacy %
Method: as §1, §2, §3, §4, §5

Cordana musae [3] = experiment: in vitro-Test with fungal microorganisms, Method B (tables E9-E16); format: cell-based; details: Neocordana musae, single active, read-out: Efficacy
Method in brief: (§6)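 Efficacy scale: 0% means growth equal to the untreated control, 100% means none detected. Compounds are dried from methanol with emulsifier before adding inoculated growth medium; incubation at 20° C., 85% relative humidity for 3 to 7 days precedes photometric inhibition readout.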

Alternaria alternate = experiment: in vitro-Test with fungal microorganisms, Method A (tables A1-A12); format: cell-based, Alternaria alternata; details: Alternaria, applied alone, read-out: Efficacy %
Method in brief: (§7)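 Compound was dried into wells and overlaid with liquid potato dextrose medium containing spores or mycelium of the fungus. Plates were held at 20° C and 85% RH, and growth was read as extinction at 620 nm after 3–5 days. Efficacy is relative to the untreated control (0% = control growth, 100% = no growth).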

Botrytis cinerea [4] = experiment: in vitro-Test with fungal microorganisms, Method A (tables B1-B14); format: cell-based; details: Botrytis cinerea
Method in brief: as §7

[5] = system: Ustilago segetum var. avenae; experiment: in vitro-Test with fungal microorganisms, Method B (tables I6-I11); format: cell-based; details: 1 ppm; read-out: Efficacy %
Method in brief: as §6

Alternaria alternata = experiment: in vitro-Test with fungal microorganisms, Method B (tables A13-A22); format: cell-based; details: Alternaria alternata, read-out: Efficacy
Method in brief: as §6

Colletotrichum coccodes = experiment: in vitro-Test with fungal microorganisms, Method B (tables J1-J11); format: cell-based; details: Colletotrichum coccodes, read-out: Efficacy %
Method in brief: as §6

Cercospora beticola [6] = experiment: in vitro-Test with fungal microorganisms, Method B (tables C11-C20); format: cell-based; details: Cercospora beticola, read-out: Efficacy %
Method in brief: as §6

Cercospora beticola [7] = experiment: in vitro-Test with fungal microorganisms, Method A (tables C1-C10); format: cell-based; details: Cercospora beticola, read-out: Efficacy %
Method in brief: as §7

Diaporthe citri = experiment: in vitro-Test with fungal microorganisms, Method A (tables F1-F11); format: cell-based; details: Diaporthe citri, read-out: Efficacy
Method in brief: as §7

Fusarium culmorum = experiment: in vitro-Test with fungal microorganisms, Method A (tables G1-G4); format: cell-based
Method: as §1, §2, §3, §4, §5

Botrytis cinerea [8] = experiment: in vitro-Test with fungal microorganisms, Method B (tables B15-B18); format: cell-based; details: Botrytis cinerea, alone, read-out: Efficacy %
Method: as §1
as §2, with “30” for “10”, “200” for “100”, “growth” for “potato dextrose”, “given,” for “given into each well,”
With the aid of a photometer, the extinction in all wells is measured at the wavelength of 600 nm.
The microtiter plates are incubated for 3 to 7 days at 20° C. and 85% relative humidity. After the incubation inhibition of growth is determined photometrically. Efficacy is calculated in relation to the untreated control, 0% efficacy means fungal growth as high as in untreated control while 100% efficacy means no fungal growth is measured.
as §5

[9] = system: Ustilago segetum var. avenae; experiment: in vitro-Test with fungal microorganisms, Method A (tables I1-I5); format: cell-based; details: alone, read-out: Efficacy %
Method: as §1, §2, §3, §4, §5

O=C1c2ccccc2C(=O)N1SC(Cl)(Cl)Cl [(5.012) folpet, folpet]
inhibition of growth at 0.08 ppm (Cordana musae [1]; 0.08 ppm): 5% | inhibition of growth at 0.4 ppm (Cordana musae [1]; 0.4 ppm): 10% | inhibition of growth at 2 ppm (Cordana musae [1]; 2.0 ppm): 100% | inhibition of growth at 0.08 ppm ([2]; mixing partner alone, 0.08 ppm): 0% | inhibition of growth at 0.4 ppm ([2]; mixing partner alone, 0.4 ppm): 0% | inhibition of growth at 2 ppm ([2]; mixing partner alone, 2.0 ppm): 100% | inhibition of growth at 10 ppm ([2]; mixing partner alone, 10.0 ppm): 100% | inhibition of growth at 0.08 ppm ([2]; single active at 0.08 ppm): 0% | inhibition of growth at 0.4 ppm ([2]; single active at 0.4 ppm): 13% | inhibition of growth at 2 ppm ([2]; single active at 2.0 ppm): 98% | inhibition of growth at 10 ppm ([2]; single active at 10.0 ppm): 100% | inhibition of growth at 0.008 ppm (Cordana musae [3]; 0.008 ppm): 0% | inhibition of growth at 0.04 ppm (Cordana musae [3]; 0.04 ppm): 0% | inhibition of growth at 0.2 ppm (Cordana musae [3]; 0.2 ppm): 17% | inhibition of growth at 1 ppm (Cordana musae [3]; 1 ppm): 62% | inhibition of growth at 2 ppm (Alternaria alternate; 2.0 ppm): 100% | inhibition of growth at 10 ppm (Alternaria alternate; 10.0 ppm): 100% | inhibition of growth at 2 ppm (Botrytis cinerea [4]; alone, 2.0 ppm, read-out: Efficacy %): 100% | inhibition of growth at 10 ppm (Botrytis cinerea [4]; alone, 10.0 ppm, read-out: Efficacy %): 100% | inhibition of growth at 1 ppm [5]: 6% | inhibition of growth at 0.2 ppm (Alternaria alternata): 6% | inhibition of growth at 1 ppm (Alternaria alternata): 99% | inhibition of growth at 0.008 ppm (Alternaria alternata; single compound, 0.008 ppm): 6% | inhibition of growth at 0.04 ppm (Alternaria alternata; single compound, 0.04 ppm): 3% | inhibition of growth at 0.2 ppm (Alternaria alternata; single compound): 7% | inhibition of growth at 1 ppm (Alternaria alternata; single compound): 83% | inhibition of growth at 0.008 ppm (Colletotrichum coccodes; 0.008 ppm): 1% | inhibition of growth at 0.04 ppm (Colletotrichum coccodes; 0.04 ppm): 3% | inhibition of growth at 1 ppm (Colletotrichum coccodes; 1 ppm): 66% | inhibition of growth at 0.008 ppm (Cercospora beticola [6]; 0.008 ppm): 7% | inhibition of growth at 1 ppm (Cercospora beticola [6]): 100% | inhibition of growth at 0.04 ppm (Cercospora beticola [6]; single compound, 0.04 ppm): 0% | inhibition of growth at 0.2 ppm (Cercospora beticola [6]; single compound, 0.2 ppm): 16% | inhibition of growth at 1 ppm (Cercospora beticola [6]; single compound): 86% | inhibition of growth at 0.4 ppm (Cercospora beticola [7]; 0.4 ppm): 50% | inhibition of growth at 0.08 ppm (Diaporthe citri; Table F10, 0.08 ppm alone): 12% | inhibition of growth at 2 ppm (Diaporthe citri; Table F10, 2.0 ppm alone): 99% | inhibition of growth at 10 ppm (Diaporthe citri; Table F10, 10.0 ppm alone): 100% | inhibition of growth at 0.08 ppm (Diaporthe citri; applied alone, 0.08 ppm): 1% | inhibition of growth at 0.4 ppm (Diaporthe citri; applied alone, 0.4 ppm): 56% | inhibition of growth at 2 ppm (Diaporthe citri; applied alone, 2.0 ppm): 99% | Efficacy (Fusarium culmorum; 0.4 ppm alone): 0% | Efficacy (Fusarium culmorum; 10.0 ppm, alone): 100% | inhibition of growth at 0.08 ppm (Fusarium culmorum; Fusarium culmorum, 0.08 ppm, alone, read-out: Efficacy): 0% | inhibition of growth at 2 ppm (Fusarium culmorum; Fusarium culmorum, 2.0 ppm, alone, read-out: Efficacy): 100% | inhibition of growth at 0.008 ppm (Botrytis cinerea [8]; 0.008 ppm): 8% | inhibition of growth at 0.04 ppm (Botrytis cinerea [8]; 0.04 ppm): 1% | inhibition of growth at 1 ppm (Botrytis cinerea [8]; 1 ppm): 16% | inhibition of growth at 0.4 ppm ([9]; 0.4 ppm): 15% | inhibition of growth at 2 ppm ([9]; 2.0 ppm): 100% | inhibition of growth at 10 ppm ([9]; 10.0 ppm): 100%

Cc1cc(C2=NOCC(Cc3ccc(Br)cc3C)N2)c(Oc2cccc(Cl)c2F)nn1 (racemic) [Compound I-300, rac-5-[(4-bromo-2-methylphenyl)methyl]-3-[3-(3-chloro-2-fluorophenoxy)-6-methylpyridazin-4-yl]-5,6-dihydro-4H-1,2,4-oxadiazine]
inhibition of growth at 0.1 ppm (Alternaria alternate; 0.1 ppm): 100% | inhibition of growth at 0.0008 ppm (Botrytis cinerea [4]; 0.0008 ppm, read-out: Efficacy): 0% | inhibition of growth at 0.004 ppm (Botrytis cinerea [4]; 0.004 ppm, read-out: Efficacy): 0% | inhibition of growth at 0.02 ppm (Botrytis cinerea [4]; 0.02 ppm, read-out: Efficacy): 0% | inhibition of growth at 0.1 ppm (Botrytis cinerea [4]; 0.1 ppm, read-out: Efficacy): 49% | inhibition of growth at 0.0008 ppm (Cercospora beticola [7]; 0.0008 ppm alone): 0% | inhibition of growth at 0.0008 ppm (Cercospora beticola [7]; 0.0008 ppm): 0% | inhibition of growth at 0.004 ppm (Cercospora beticola [7]; 0.004 ppm alone): 0% | inhibition of growth at 0.004 ppm (Cercospora beticola [7]; 0.004 ppm): 0% | inhibition of growth at 0.02 ppm (Cercospora beticola [7]; 0.02 ppm alone): 10% | inhibition of growth at 0.02 ppm (Cercospora beticola [7]; 0.02 ppm): 10% | inhibition of growth at 0.1 ppm (Cercospora beticola [7]; 0.1 ppm alone): 19% | inhibition of growth at 0.1 ppm (Cercospora beticola [7]; 0.1 ppm): 19% | inhibition of growth at 0.0008 ppm (Diaporthe citri; applied alone, 0.0008 ppm): 0% | inhibition of growth at 0.004 ppm (Diaporthe citri; applied alone, 0.004 ppm): 10% | inhibition of growth at 0.02 ppm (Diaporthe citri; applied alone, 0.02 ppm): 22% | inhibition of growth at 0.1 ppm (Diaporthe citri; applied alone, 0.1 ppm): 44% | inhibition of growth at 0.0008 ppm (Fusarium culmorum; Fusarium culmorum, 0.0008 ppm, alone, read-out: Efficacy): 2% | inhibition of growth at 0.004 ppm (Fusarium culmorum; Fusarium culmorum, 0.004 ppm, alone, read-out: Efficacy): 6% | inhibition of growth at 0.02 ppm (Fusarium culmorum; Fusarium culmorum, 0.02 ppm, alone, read-out: Efficacy): 5% | inhibition of growth at 0.1 ppm (Fusarium culmorum; Fusarium culmorum, 0.1 ppm, alone, read-out: Efficacy): 2% | inhibition of growth at 0.0008 ppm ([9]; 0.0008 ppm): 0% | inhibition of growth at 0.004 ppm ([9]; 0.004 ppm): 0% | inhibition of growth at 0.02 ppm ([9]; 0.02 ppm): 0% | inhibition of growth at 0.1 ppm ([9]; 0.1 ppm): 0%
